The test system of assay [1] is Nucleic Acid. The assay can be described thus: Induction of DNA methylation at calf thymus DNA assessed as 3-MeA adduct level per mol of DNA at 100 uM after 24 hrs by reverse phase HPLC in presence of 100 uM netropsin. It counts as nucleic-acid assay. The conditions noted are these: Bos taurus.
The test system of assay [2] is Nucleic Acid. In words: Induction of DNA methylation at calf thymus DNA assessed as 7-MeG adduct level per mol of DNA at 100 uM after 24 hrs by reverse phase HPLC. The assay is classed as nucleic-acid assay. To be noted: Bos taurus.
In assay [3] the test system is Nucleic Acid. The assay can be described thus: Induction of DNA methylation at calf thymus DNA assessed as 7-MeG adduct level per mol of DNA at 100 uM after 24 hrs by reverse phase HPLC in presence of 100 uM netropsin. It counts as nucleic-acid assay. To be noted: Bos taurus.
The test system of assay [4] is Nucleic Acid. In words: Induction of DNA methylation at calf thymus DNA assessed as total adduct level at 500 uM after 24 hrs by reverse phase HPLC relative to methylmethane sufonate. To be noted: Bos taurus. It counts as nucleic-acid assay.
Assay [5] concerns Nucleic Acid. The assay can be described thus: Induction of DNA methylation at calf thymus DNA assessed as 3-MeA level at 500 uM after 24 hrs by reverse phase HPLC relative to methylmethane sufonate. It counts as nucleic-acid assay. To be noted: Bos taurus.
Assay [6] concerns Nucleic Acid. In words: Induction of DNA methylation at calf thymus DNA assessed as 7-MeG level at 500 uM after 24 hrs by reverse phase HPLC relative to methylmethane sufonate. It counts as nucleic-acid assay. To be noted: Bos taurus.
Assay [7] deals with MCF7. The assay can be described thus: Cytotoxicity against human MCF7 cells after 16 hrs by MTT assay. It counts as functional, cell-based. The conditions noted are these: MCF7, 16 h.
In assay [8] the test system is Nucleic Acid. In words: Induction of DNA methylation at calf thymus DNA assessed as 3-MeA adduct level per mol of DNA after 24 hrs by reverse phase HPLC. It counts as nucleic-acid assay. To be noted: Bos taurus.
Assay [9] relates to Nucleic Acid. The assay can be described thus: Induction of DNA methylation at calf thymus DNA assessed as 7-MeG adduct level per mol of DNA after 24 hrs by reverse phase HPLC. It counts as nucleic-acid assay. To be noted: Bos taurus.
For assay [10], the system named is Nucleic Acid. The assay can be described thus: Induction of DNA methylation at calf thymus DNA assessed as 3-MeA adduct level per mol of DNA at 50 uM after 24 hrs by reverse phase HPLC. The assay is classed as nucleic-acid assay. To be noted: Bos taurus.
Assay [11] concerns Nucleic Acid. In words: Induction of DNA methylation at calf thymus DNA assessed as 3-MeA adduct level per mol of DNA at 50 uM after 24 hrs by reverse phase HPLC in presence of 100 uM netropsin. The assay is classed as nucleic-acid assay. The conditions noted are these: Bos taurus.
The subject of assay [12] is Nucleic Acid. The assay can be described thus: Induction of DNA methylation at calf thymus DNA assessed as 7-MeG adduct level per mol of DNA at 50 uM after 24 hrs by reverse phase HPLC. It counts as nucleic-acid assay. To be noted: Bos taurus.
Assay [13] has as its system Nucleic Acid. In words: Induction of DNA methylation at calf thymus DNA assessed as 7-MeG adduct level per mol of DNA at 50 uM after 24 hrs by reverse phase HPLC in presence of 100 uM netropsin. It counts as nucleic-acid assay. To be noted: Bos taurus.
The test system of assay [14] is MCF7. The assay can be described thus: Ratio of methylmethane sufonate EC50 to compound EC50 for human MCF7 cells after 16 hrs by MTT assay. The assay is classed as functional.
In assay [15] the test system is MCF7. In words: Cytotoxicity against human MCF7 cells at 250 uM after 16 hrs by MTT assay pretreated with 250 uM fulvestrant. It counts as functional, cell-based.
Assay [16] has as its system MCF7. In words: Cytotoxicity against human MCF7 cells after 16 hrs by MTT assay pretreated with 100 uM netropsin. It counts as functional, cell-based.
Assay [17] concerns MCF7. The assay can be described thus: Ratio of Me-lex EC50 to compound EC50 for human MCF7 cells after 16 hrs by MTT assay. It counts as functional.
The test system of assay [18] is MCF7. The assay can be described thus: Ratio of EC50 for human MCF7 cells pretreated with 100 uM netropsin to compound EC50 for human MCF7 cells. The assay is classed as functional.
Assay [19] relates to Nucleic Acid. In words: Induction of DNA methylation at calf thymus DNA assessed as 3-MeA adduct level per mol of DNA at 5000 uM after 24 hrs by reverse phase HPLC. The assay is classed as nucleic-acid assay. The conditions noted are these: Bos taurus.
Assay [20] deals with Nucleic Acid. In words: Induction of DNA methylation at calf thymus DNA assessed as 3-MeA adduct level per mol of DNA at 5000 uM after 24 hrs by reverse phase HPLC in presence of 100 uM netropsin. It counts as nucleic-acid assay. To be noted: Bos taurus.
For assay [21], the target named is T1, Estrogen receptor (Homo sapiens) (UniProt P03372).
T1 sequence (whole entry): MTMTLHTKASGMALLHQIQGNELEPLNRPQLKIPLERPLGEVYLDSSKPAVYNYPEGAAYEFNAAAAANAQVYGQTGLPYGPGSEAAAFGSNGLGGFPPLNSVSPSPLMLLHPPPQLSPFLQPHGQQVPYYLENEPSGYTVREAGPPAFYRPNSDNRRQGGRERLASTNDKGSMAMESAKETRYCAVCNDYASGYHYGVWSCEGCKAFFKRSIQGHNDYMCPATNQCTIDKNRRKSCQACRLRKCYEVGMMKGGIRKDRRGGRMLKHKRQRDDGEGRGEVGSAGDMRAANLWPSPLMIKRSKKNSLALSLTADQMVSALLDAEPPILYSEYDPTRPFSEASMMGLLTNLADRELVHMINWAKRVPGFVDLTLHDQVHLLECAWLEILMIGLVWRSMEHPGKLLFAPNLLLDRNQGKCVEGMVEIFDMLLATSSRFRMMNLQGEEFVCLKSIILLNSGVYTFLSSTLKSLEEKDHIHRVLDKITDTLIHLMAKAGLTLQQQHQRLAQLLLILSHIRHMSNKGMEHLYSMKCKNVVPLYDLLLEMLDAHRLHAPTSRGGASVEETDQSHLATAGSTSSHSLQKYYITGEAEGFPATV
The assay can be described thus: (§1) Binding affinity to estrogen receptor-alpha after 2 hrs by TR-FRET assay.

The target of a further assay is T2, Estrogen receptor (Homo sapiens, UniProt P03372).
T2 sequence (P03372 whole entry): T1 sequence (whole entry)
The assay is described as §1.

For assay [22], the system named is MCF7. The assay can be described thus: Cytotoxicity against human MCF7 cells at 500 uM after 16 hrs by MTT assay. It counts as functional, cell-based.

Activity calls are given as the source filed them. The calls are words filed in the database; no cut-off is given here.

On to `CCCNC(=O)CCCNC(=O)c1cc(NC(=O)c2cc(NC(=O)CCS(=O)(=O)OC)cn2C)cn1C`, for which the Activity in the assay with Nucleic Acid [1] was 657 µmol; in the assay with Nucleic Acid [2], 496 µmol; in the assay on Nucleic Acid [3], 614 µmol; in the assay on Nucleic Acid [8], 96%; with Nucleic Acid [9], 90%. In addition, the fold change (FC) in the assay with Nucleic Acid [4] came out at 37; in the assay on Nucleic Acid [5], 391; with Nucleic Acid [6] it was 1.4. Besides, it took 214 µM to reach a half-maximal effect in the assay on MCF7 [7] (EC50).

With `COS(=O)(=O)CCC(=O)Nc1cc(C(=O)Nc2cc(C(=O)NCCCC(=O)NCCCCCC[C@@H]3Cc4cc(O)ccc4[C@H]4CC[C@]5(C)[C@@H](O)CC[C@H]5[C@H]34)n(C)c2)n(C)c1`, the Activity in the assay with Nucleic Acid [10] is 1760 µmol; in the assay with Nucleic Acid [11], 167 µmol; in the assay on Nucleic Acid [12] it was 280 µmol; in the assay on Nucleic Acid [13], 279 µmol; with Nucleic Acid [8] it was 86%; with Nucleic Acid [9], 14%. For the same compound, the fold change (FC) in the assay with Nucleic Acid [4] was found to be 11; in the assay on Nucleic Acid [5], 98; in the assay on Nucleic Acid [6], 1.5. The EC50 in the assay on MCF7 [7] is 135 µM; in the assay on MCF7 [16] it was 479 µM. In addition, the entries for the “Ratio EC50” value with MCF7 [14], in the assay with MCF7 [17] and in the assay on MCF7 [18] were 20, 1.5 and 3, respectively. Besides, the result in the assay on MCF7 [15] was inactive.

In the case of `COS(C)(=O)=O` [METHANESULFONIC ACID METHYL ESTER], the figures for the Activity in the assay with Nucleic Acid [19], in the assay on Nucleic Acid [20] and in the assay with Nucleic Acid [8] were 1800 µmol, 1240 µmol and 9%, respectively. For the same compound, a half-maximal response in the assay on MCF7 [7] (EC50) required 2750 µM.

`Cn1cc(NC(=O)c2cc(NC(=O)CCS(C)(=O)=O)cn2C)cc1C(=O)NCCCC(=O)NCCCCCC[C@@H]1Cc2cc(O)ccc2[C@H]2CC[C@]3(C)[C@@H](O)CC[C@H]3[C@H]12` gave an RBA in assay [21] of 51%. In addition, the concentration for half-maximal inhibition (IC50) at Estrogen receptor turned out to be 0.00111 µM. Besides, the result with MCF7 [22] was inactive.
